Measured values taken from patent US9133206B2, “Benzodiazepine and pyridodiazepine derivatives” (AbbVie Inc., priority 2010, dated 2015).

System: SK-N-SH human neuroblastoma cells
Experiment: Serum Deprivation/JC-1 Mitochondrial Membrane Potential (MMP) Assay
Format: cell-based
Settings: Homo sapiens; for EC50 / Emax: SK-N-SH; for EC50: 18 h, serum deprivation ~18 hours, JC-1 ratio normalized to peak value for 10 μM dimebolin, single curve fit to mean data of n=2-3; for Emax: percent maximal intensity in JC-1 ratio normalized to peak value for 10 μM dimebolin, read-out: JC-1 max %; for Emax / activation at 3 µM: serum deprivation; for activation at 3 µM: single dose 3 μM, JC-1 ratio normalized to peak value for 10 μM dimebolin (n=2-4), read-out: JC-1 max % (@ 3 μM)
From the text: The method also involves a high-throughput assay using serum-deprivation conditions involving neuronal cells to screen for compounds that increase or preserve mitochondrial membrane potential. Such compounds can be found to aid in rescuing cells from energy-depletion that occurs in several neurodegenerative states. Mitochondrial-mediated apoptosis occurs in response to a wide range of apoptotic stimuli including p^53, c-myc, DNA damage, prooxidants, chemotherapeutic agents, serum starvation and death receptor activation (Lin C—H., Lu Y-Z., Cheng, F-C., Chu L-F. and Hsuch C-M. Bax-regulated mitochondrial-mediated apoptosis is responsible for the in vitro ischemia induced neuronal cell death of Sprague Dawley rat. Neuroscience Lett. 2005, 387, 22-27).
Thus, this stress inducer, serum deprivation, combined with monitoring changes in the mitochondrial membrane potential in a 96-well format allows for the establishment of an efficient high-throughput screen (HTS) in order to evaluate the ability of compounds to increase mitochondrial membrane potential in the presence of stress and preserve health of the cell. Exemplary procedures for conducting such high-throughput assay are provided below.
SK-N-SH human neuroblastoma cells obtained from American Type Culture Collection (Rockville, Md.) were maintained in the log phase of growth in Minimal Essential Media (MEM), 10% heat inactivated fetal calf serum and 100 units/mL antibiotic-antimycotic (AA). Cells were cultured and maintained in a humidified incubator at 37° C. under 5% CO2 and 95% air. Cells were trypsinized (0.25%) and subcultured every 3 days and used from 15-18 passages. All cell culture supplies were obtained from Invitrogen (Carlsbad, Calif.).
SK-N-SH cells were plated 2-3 days in advance at a concentration of 50,000 cells/well onto collagen coated black-walled 96 well plates (Becton-Dickinson, Bedford, Mass.) in a total volume of […]. On day of experimental treatment, the media containing serum was aspirated from each well and rinsed once with MEM/1% AA without serum. The cells then were incubated overnight in 100 μL of MEM/1% AA (no serum) with and without dimebolin or novel chemical entities overnight for ˜18 hours. The following day, JC-1 dye (5,5′,6,6′-tetrachloro-1,1′,3,3′-tetraethylbenzimidazolcarbocyanide) was diluted 1:10 into MEM media according to the JC-1 Mitochondrial Membrane Potential Assay Kit: (Cayman Chemical Company, Ann Arbor, Mich.) and then 10 μL of the JC-1 dye solution was added to each well. The plates were centrifuged for 5 minutes at 400×g at room temperature followed by 40 minute incubation at 37° C. The plates were washed twice with 200 μL of provided Assay Buffer followed an addition of 100 μL of Assay Buffer to each well. The plates were read with an excitation and emission of 560 nm and 595 nM for red fluorescence and with an excitation and emission of 485 nm and 535 nM for green fluorescence to determine the final JC-1 value taking the red to green fluorescence ratio. This assay is based on change in mitochondrial membrane potential (MMP) using this lipophilic cationic dye, JC-1, by monitoring the changes in the ratio of red to green fluorescence as the MMP depolarizes. This change in MMP reflects the health of the cell with healthy, viable cells have a high JC-1 ratio and high MMP whereas apoptotic, unhealthy cells have a low JC-1 ratio or low MMP.
For the ability of compounds to reverse the stress due to serum deprivation and increase the JC-1 ratio, the percent maximal intensity in JC-1 ratio was normalized to that induced by the peak value for 10 μM dimebolin and plotted against the compound concentration to calculate EC50 values and to control for plate-to-plate variability. Concentration-response data were analyzed using GraphPad Prism (San Diego, Calif.); the EC50 values were derived from a single curve fit to the mean data of n=2-3, in duplicates. […]

SMILES	EC50 [µM]	Emax [%]	activation at 3 µM [%]
Cc1cc(C(=O)N2Cc3ccccc3N3CCN(Cc4ccccc4)CC3C2)c(C)[nH]1 (stereo not shown) [Example 96, (3-benzyl-1,2,3,4,4a,5-hexahydropyrazino[1,2-a][1,4]benzodiazepin-6(7H)-yl)(2,5-dimethyl-1H-pyrrol-3-yl)methanone]	0.856	180	–
CC(C)(C)CN1Cc2ccccc2N2CCN(Cc3ccccc3)CC2C1 (stereo not shown) [Example 141, 3-benzyl-6-(2,2-dimethylpropyl)-1,2,3,4,4a,5,6,7-octahydropyrazino[1,2-a][1,4]benzodiazepine]	–	–	12
Fc1ccc(CN2Cc3ccccc3N3CCN(Cc4ccccc4)CC3C2)cc1F (stereo not shown) [Example 25, 3-benzyl-6-(3,4-difluorobenzyl)-1,2,3,4,4a,5,6,7-octahydropyrazino[1,2-a][1,4]benzodiazepine]	15.7	128	–
NC(=O)C1(C(=O)N2Cc3ccccc3N3CCN(Cc4ccccc4)CC3C2)CC1 (stereo not shown) [Example 97, 1-[(3-benzyl-1,2,3,4,4a,5-hexahydropyrazino[1,2-a][1,4]benzodiazepin-6(7H)-yl)carbonyl]cyclopropanecarboxamide]	–	–	32
Fc1ccc(CN2CCN3c4ccccc4CN(Cc4ccc(Br)cc4)C[C@@H]3C2)cc1 (single isomer, unassigned) [Example 62]	3.65	161	–
Cc1ccc(CNC(=O)N2Cc3ccccc3N3CCN(Cc4ccccc4)CC3C2)o1 (stereo not shown) [Example 156, 3-benzyl-N-[(5-methyl-2-furyl)methyl]-1,2,3,4,4a,5-hexahydropyrazino[1,2-a][1,4]benzodiazepine-6(7H)-carboxamide]	2.4	152	–
O=C1CC2CN(Cc3ccccc3)CCN2c2ncccc2N1 (stereo not shown) [Example 51, 9-benzyl-7,7a,8,9,10,11-hexahydropyrazino[1,2-d]pyrido[3,2-b][1,4]diazepin-6(5H)-one]	8.83	68	–
O=C(NCCc1ccncc1)N1Cc2ccccc2N2CCN(Cc3ccccc3)CC2C1 (stereo not shown) [Example 152, 3-benzyl-N-[2-(pyridin-4-yl)ethyl]-1,2,3,4,4a,5-hexahydropyrazino[1,2-a][1,4]benzodiazepine-6(7H)-carboxamide]	3.08	239	–
O=C(Cn1ncccc1=O)N1CCC2CN(Cc3ccccc3)CCN2c2ccccc21 (stereo not shown) [Example 78, 2-[2-(3-benzyl-2,3,4,4a,5,6-hexahydropyrazino[1,2-a][1,5]benzodiazepin-7(1H)-yl)-2-oxoethyl]pyridazin-3(2H)-one]	8.55	143	–
O=C(c1cccnc1)N1CCN2c3ncccc3N(CC3CC3)CCC2C1 (stereo not shown) [Example 74, [5-(cyclopropylmethyl)-6,7,7a,8,10,11-hexahydropyrazino[1,2-d]pyrido[3,2-b][1,4]diazepin-9(5H)-yl](pyridin-3-yl)methanone]	7.82	109	–
CN1CCN2c3ccccc3CN(C(=O)c3cccc(Cl)c3)CC2C1 (stereo not shown) [Example 175, (3-chlorophenyl)(3-methyl-1,2,3,4,4a,5-hexahydropyrazino[1,2-a][1,4]benzodiazepin-6(7H)-yl)methanone]	–	–	40
CN1CCN2c3ccccc3N(Cc3ccc(Br)cc3)CCC2C1 (stereo not shown) [Example 22, 7-(4-bromobenzyl)-3-methyl-1,2,3,4,4a,5,6,7-octahydropyrazino[1,2-a][1,5]benzodiazepine]	2.95	173	–
Fc1cc(CN2Cc3ccccc3N3CCN(Cc4ccccc4)CC3C2)ccc1Br (stereo not shown) [Example 23, 3-benzyl-6-(4-bromo-3-fluorobenzyl)-1,2,3,4,4a,5,6,7-octahydropyrazino[1,2-a][1,4]benzodiazepine]	5.72	238	–
N#Cc1cccc(CN2Cc3ccccc3N3CCN(Cc4ccccc4)CC3C2)c1 (stereo not shown) [Example 146, 3-[(3-benzyl-1,2,3,4,4a,5-hexahydropyrazino[1,2-a][1,4]benzodiazepin-6(7H)-yl)methyl]benzonitrile]	2.2	182	–
CC(C)(C)OC(=O)N1CCN2c3ccccc3CNC(=O)C2C1 (stereo not shown) [Example 1, tert-butyl 5-oxo-1,2,4a,5,6,7-hexahydropyrazino[1,2-a][1,4]benzodiazepine-3(4H)-carboxylate]	9.59	88	–
O=C(C1CCC1)N1Cc2ccccc2N2CCN(Cc3ccccc3)CC2C1 (stereo not shown) [Example 115, (3-benzyl-1,2,3,4,4a,5-hexahydropyrazino[1,2-a][1,4]benzodiazepin-6(7H)-yl)(cyclobutyl)methanone]	1.25	177	–
c1ccc(CN2CCN3c4ccccc4CN(Cc4cccs4)CC3C2)cc1 (stereo not shown) [Example 147, 3-benzyl-6-(2-thienylmethyl)-1,2,3,4,4a,5,6,7-octahydropyrazino[1,2-a][1,4]benzodiazepine]	–	–	1.7
CC(C)N1CCN(C(=O)N2Cc3ccccc3N3CCN(Cc4ccccc4)CC3C2)CC1 (stereo not shown) [Example 161, (3-benzyl-1,2,3,4,4a,5-hexahydropyrazino[1,2-a][1,4]benzodiazepin-6(7H)-yl)(4-isopropylpiperazin-1-yl)methanone]	3.18	218	–
COCCCNC(=O)N1Cc2ccccc2N2CCN(Cc3ccccc3)CC2C1 (stereo not shown) [Example 166, 3-benzyl-N-(3-methoxypropyl)-1,2,3,4,4a,5-hexahydropyrazino[1,2-a][1,4]benzodiazepine-6(7H)-carboxamide]	0.765	181	–
Brc1ccc(CN2Cc3ccccc3N3CCNCC3C2)cc1 (stereo not shown) [Example 71, 6-(4-bromobenzyl)-1,2,3,4,4a,5,6,7-octahydropyrazino[1,2-a][1,4]benzodiazepine]	7.85	105	–
CC(=O)N1CCN2c3ccccc3CN(C(=O)N3CCOCC3)CC2C1 (stereo not shown) [Example 83, 1-[6-(morpholin-4-ylcarbonyl)-1,2,4a,5,6,7-hexahydropyrazino[1,2-a][1,4]benzodiazepin-3(4H)-yl]ethanone]	> 31.6	34	–
Brc1ccccc1CN1Cc2ccccc2N2CCN(Cc3ccccc3)CC2C1 (stereo not shown) [Example 132, 3-benzyl-6-(2-bromobenzyl)-1,2,3,4,4a,5,6,7-octahydropyrazino[1,2-a][1,4]benzodiazepine]	3.33	192	–
CCCCN(CC#N)C(=O)N1Cc2ccccc2N2CCN(Cc3ccccc3)CC2C1 (stereo not shown) [Example 165, 3-benzyl-N-butyl-N-(cyanomethyl)-1,2,3,4,4a,5-hexahydropyrazino[1,2-a][1,4]benzodiazepine-6(7H)-carboxamide]	–	–	251
CC1(C)C(C(=O)N2CCC3CN(Cc4ccccc4)CCN3c3ncccc32)C1(C)C (stereo not shown) [Example 58, (9-benzyl-7,7a,8,9,10,11-hexahydropyrazino[1,2-d]pyrido[3,2-b][1,4]diazepin-5(6H)-yl)(2,2,3,3-tetramethylcyclopropyl)methanone]	3.65	215	–
CCOc1ccc(CN2Cc3ccccc3N3CCN(Cc4ccccc4)CC3C2)cc1 (stereo not shown) [Example 121, 3-benzyl-6-(4-ethoxybenzyl)-1,2,3,4,4a,5,6,7-octahydropyrazino[1,2-a][1,4]benzodiazepine]	4.21	167	–
O=C(c1ccccc1)N1CCN2c3ccccc3CN(C(=O)N3CCOCC3)CC2C1 (stereo not shown) [Example 79, (3-benzoyl-1,2,3,4,4a,5-hexahydropyrazino[1,2-a][1,4]benzodiazepin-6(7H)-yl)(morpholin-4-yl)methanone]	9.25	86	–
c1ccc(CN2CCN3c4ccccc4CN(c4ccccn4)CC3C2)cc1 (stereo not shown) [Example 16, 3-benzyl-6-(pyridin-2-yl)-1,2,3,4,4a,5,6,7-octahydropyrazino[1,2-a][1,4]benzodiazepine]	3.63	131	–
